Results taken from paper PMC9694334, “Synthesis and Biological Evaluation of a Fused Structure of Indolizine and Pyrrolo[1,2-c]pyrimidine: Identification of Its Potent Anticancer Activity against Liver Cancer Cells” (Pharmaceuticals, 2022).

Experiments:
AGS cells = test: Cell viability assay (MTS) in AGS cells; type: cell-based; settings: 72 h, MTS, Figure 2C
Experimental: (§1) HepG2, Huh7, H1299, HT29, AGS and A549 cells were purchased from the Korean Cell Line Bank (Seoul, Korea) and HaCaT cells were obtained from Prof. Sohee Kwon (Yonsei University, Korea). Liver cancer cells (HepG2), human keratinocyte cells (HaCaT), and lung cancer cells (A549) were grown in DMEM high-glucose medium, liver cancer cells (Huh7) and non-small cell lung cancer cells (H1299) were grown in RPMI 1640, and gastric cancer cells (AGS) were grown in Coon’s modified F12 medium. All media were supplemented with 10% FBS, 100 Units/mL penicillin, and 100 μg/mL streptomycin. All cells were incubated at 37 °C, 5% CO2 and 95% humidity.
(§2) Cell viability assay was conducted using Cell Titer 96® AQueous One Solution Cell proliferation Assay kit (Promega, Madison, WI, USA). Five cancer cells and HaCaT cells were plated in 96-well microplates with growth medium for 24 h. When cell confluency reached ~30%, cells were treated with DMSO (vehicle) and test compounds. The medium and test compounds were replaced every 24 h. To measure cell viability, the cells were incubated with MTS solution for 1 h. The absorbance was measured by using Infinite M200 microplate reader (Tecan, Männedorf, Switzerland) at 490 nm.
(§3) Figure 2 Effect of 5r on cell viability in HepG2, Huh7, AGS, H1299, A549, HaCaT, NIH3T3, and HEK293T cells. (A–H) HepG2, Huh7, AGS, H1299, A549, HaCaT, NIH3T3, and HEK293T cells were cultured with 5r at the indicated concentrations for 72 h, and medium was replaced every 24 h with freshly added 5r. Cell viability was measured by MTS analysis (mean ± S.D., n = 5). * p < 0.05, ** p < 0.01, *** p < 0.001.

Huh7 cells [1] = test: Cell viability assay (MTS) in Huh7 cells; type: cell-based; settings: Homo sapiens, Huh-7, mean, n = 5, 72 h for 5r (Figure 2)
Experimental: as §1, §2, §3

HaCaT cells = test: Cell viability assay (MTS) in HaCaT cells; type: cell-based, human
Experimental: as §1, §2, §3

HEK293T cells = test: Cell viability assay (MTS) in HEK293T cells; type: cell-based; settings: 72 h, Figure 2H
Experimental: as §2, §3

Huh7 cells [2] = test: In vitro wound-healing assay in Huh7 cells; type: cell-based; settings: Figure 3
Experimental: The suppressive effect of 5r on cell migration was assessed through in vitro wound-healing assay. HepG2 and Huh7 cells were grown to approximately 100% confluence to form a monolayer in a 96-well microplate. Wounds were formed through 96-well wound maker (Essen BioScience, Ann Arbor, MI, USA). Then, growth medium was removed and washed out twice with phosphate-buffered saline (PBS) and incubated with 200 μL of DMEM and RPMI 1640 medium containing 5r or vehicle (DMSO). Images of the wound area were taken by using IncuCyte ZOOM (Essen BioScience, Ann Arbor MI, USA), and the percentage of wound closure was measured by using IncuCyte software.
Figure 3 Inhibitory effect of 5r on cell migration in HepG2 and Huh7 cells. (A,B) In vitro wound-healing assay was performed in HepG2 and Huh7 cells (mean ± S.D., n = 3). HepG2 and Huh7 cells were treated with the indicated concentrations of 5r, and time-lapse images were acquired every 2 h after wound infliction. (C,D) Representative images were taken at 0, 48, or 72 h following administration of 5r at the indicated concentrations.

caspase-3 = test: Caspase-3 activity assay in HepG2 cells; type: cell-based; settings: 3 µM 5r for 24 h, Figure 4A
Experimental: HepG2 and Huh7 cells were plated in 96-black-well plate to about 40% confluence, and then 5r was treated for 24 h. To assess activity of caspase-3, the growth medium was changed with 100 μL of PBS containing 1 μM caspase-3 substrate, NucView 488, and incubated at room temperature. After 20 min, 1 μM Hoechst 33342 was treated to stain the cells. Activity of caspase-3 was suppressed by Ac-DEVD-CHO, a selective caspase-3 inhibitor. FLUOstar Omega microplate reader (BMG Labtech, Ortenberg, Germany) was used to assess the fluorescence of NucView 488 and Hoechst, and Lionheart FX Automated Microscope (BioTek, Winooski, VT, USA) was used to acquire the fluorescence microscopy images.
Figure 4 Effect of 5r on activity of caspase-3 and cleavage of PARP in HepG2 and Huh7 cells. (A,B) HepG2 and Huh7 cells were incubated with 3 µM 5r for 24 h and then incubated with 1 µM caspase-3 substrate (green) and 1 µM Hoechst 33,342 (blue) for 20 min before image acquisition. (C,D) Cells were cultured with 5r at the indicated concentrations for 24 h and then 1 μM caspase-3 substrate was treated for 20 min. Caspase-3 was inhibited by 20 μM Ac-DEVD-CHO (mean ± S.D., n = 3). (E,F) Cells were cultured with 5r at the indicated concentrations for 24 h, and expression level of PARP, cleaved-PARP and β-actin were measured by Western blot analysis. […]

HepG2 cells = test: Flow cytometry cell cycle analysis (propidium iodide) in HepG2 cells; type: cell-based; settings: 3 µM 5r for 24 h
Experimental: HepG2 cells were grown to approximately 40% confluence in a 6-well plate and then 5r was treated for 24 h. After 24 h, HepG2 cells were washed out twice with PBS and centrifuged at 1000 RPM for 2 min at room temperature. The cells were stained with propidium iodide for 15 min and then cell cycle phases were measured by using FACS (Beckman Coulter, Fullerton, CA, USA).
Figure 5 Effect of 5r on cell cycle in HepG2 cells. (A,B) HepG2 cells were treated with 3 µM 5r for 24 h and then cell cycle phases were measured by propidium iodide staining, followed by flow cytometry analysis.

Huh7 cells [3] = test: Combination of 5r with gemcitabine, cell viability (MTS) in Huh7 cells; type: cell-based; settings: co-treatment with gemcitabine (0.3 μM), 72 h
Experimental: as §2
Figure 6 Combination effect of 5r and gemcitabine on cell viability in HepG2 and Huh7 cells. (A,B) HepG2 and Huh7 cells were cultured with the indicated concentrations of 5r and gemcitabine (0.3 μM) for 72 h, and medium was replaced every 24 h with freshly added 5r and gemcitabine. Cell viability was determined by MTS analysis (mean ± S.D., n = 5). ** p < 0.01, *** p < 0.001.

What does the source list for N#Cc1c2c3cccn3c(-c3ccccc3O)nc2n2ccccc12 [Compound 5r, 5-(2-Hydroxyphenyl)pyrrolo[1′,2′:1,6]pyrimido[5,4-b]indolizine-12-carbonitrile]?
Effect on cell viability in AGS cells (AGS cells): weak effect; IC50 (Huh7 cells [1]): 0.1 µM; Effect on cell viability in non-cancerous HaCaT cells (HaCaT cells; 72 h, Figure 2F): weakly decreased cell viability; IC50 (HaCaT cells; Homo sapiens, mean, n = 5): 6.91 µM; Effect on cell viability in non-cancerous HEK293T cells (HEK293T cells): weakly decreased cell viability; Effect on cell migration (wound closure) in Huh7 cells (Huh7 cells [2]): significantly inhibited cell migration in a dose-dependent manner; Caspase-3 activity in HepG2 cells (caspase-3): potently increased caspase-3 activity; Ratio in the G2/M phase (HepG2 cells): did not affect; Sub-G1 (apoptotic peak) phase ratio (HepG2 cells; control 24.1%): 56.9%; G0/G1 phase ratio (HepG2 cells; control 64.6%): 29.3%; Combination effect with gemcitabine on cell viability in Huh7 cells (Huh7 cells [3]): additional effect rather than a synergistic effect
